Where “and” joins values, the source holds several entries; their conditions need not be identical. Equal entries are not always repeated. ± gives the expanded uncertainty stated by the source.
Conditions: Liquid, Transpiration method

COc1ccc(C)cc1 [1-methoxy-4-methylbenzene]
Conditions | vapor or sublimation pressure
275.2 K | 0.0275 ± 0.0018 kPa
276.4 K | 0.031 ± 0.002 kPa
277.2 K | 0.0326 ± 0.0021 kPa
278.8 K | 0.0379 ± 0.0025 kPa
281.7 K | 0.0478 ± 0.003 kPa
284.8 K | 0.0612 ± 0.004 kPa
287.5 K | 0.0759 ± 0.0048 kPa
289.2 K | 0.0861 ± 0.0055 kPa
290.4 K | 0.095 ± 0.006 kPa
291.2 K | 0.0997 ± 0.0064 kPa
291.3 K | 0.1015 ± 0.0065 kPa
294.2 K | 0.1267 ± 0.008 kPa
296.2 K | 0.1436 ± 0.009 kPa
297.1 K | 0.1563 ± 0.0099 kPa
299.2 K | 0.1817 ± 0.011 kPa
300.1 K | 0.1942 ± 0.012 kPa and 0.2003 ± 0.013 kPa
301.1 K | 0.2085 ± 0.013 kPa
303.1 K | 0.2465 ± 0.016 kPa
305 K | 0.2782 ± 0.018 kPa
308 K | 0.3386 ± 0.021 kPa

COc1ccccc1C [1-methoxy-2-methylbenzene]
Conditions | vapor or sublimation pressure
275.8 K | 0.035 ± 0.0023 kPa
277.7 K | 0.0405 ± 0.0025 kPa
278.7 K | 0.0432 ± 0.0028 kPa
280.6 K | 0.0504 ± 0.0033 kPa
282.6 K | 0.0599 ± 0.0038 kPa
285.7 K | 0.0735 ± 0.0047 kPa
286.8 K | 0.0821 ± 0.0053 kPa
290.2 K | 0.1038 ± 0.0065 kPa
293.4 K | 0.1308 ± 0.0083 kPa
296.2 K | 0.1606 ± 0.01 kPa
298.2 K | 0.1819 ± 0.011 kPa
300.2 K | 0.2111 ± 0.013 kPa and 0.2117 ± 0.013 kPa
303.3 K | 0.2601 ± 0.016 kPa
305.1 K | 0.2865 ± 0.018 kPa
308 K | 0.3491 ± 0.022 kPa

COc1cccc(C)c1 [1-methoxy-3-methylbenzene]
Conditions | vapor or sublimation pressure [kPa]
276.7 K | 0.0285 ± 0.0018
277.8 K | 0.0314 ± 0.002
280.6 K | 0.0395 ± 0.0025
284.7 K | 0.0541 ± 0.0035
289.4 K | 0.0804 ± 0.005
291.9 K | 0.094 ± 0.006
297.7 K | 0.1433 ± 0.009
301.1 K | 0.1806 ± 0.011
304.1 K | 0.2286 ± 0.014
305 K | 0.2433 ± 0.015
308 K | 0.3006 ± 0.019
310 K | 0.3363 ± 0.021
312.2 K | 0.4058 ± 0.026

— the NIST ThermoML archive (doi:10.1016/j.jct.2015.02.001)
